Key:
[1] = molecular target: GDP-bound NRAS wild-type protein (Homo sapiens, UniProt P01111); test: Binding to NRAS by surface plasmon resonance (SPR), Single Cycle Kinetics
[2] = molecular target: GDP-bound HRAS wild-type protein (Homo sapiens, UniProt P01112); test: Binding to HRAS by surface plasmon resonance (SPR), Single Cycle Kinetics
[3] = SPR, GDP-bound NRAS wild-type vs GDP-bound KRAS wild-type
[4] = SPR, GDP-bound HRAS wild-type vs GDP-bound KRAS wild-type

Sequence of GDP-bound NRAS wild-type protein (P01111 whole entry): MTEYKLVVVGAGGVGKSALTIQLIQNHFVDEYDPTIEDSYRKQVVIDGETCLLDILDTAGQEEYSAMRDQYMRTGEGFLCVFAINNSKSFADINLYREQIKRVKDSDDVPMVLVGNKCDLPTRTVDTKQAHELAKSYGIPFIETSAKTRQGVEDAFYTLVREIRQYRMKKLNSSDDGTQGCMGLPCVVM
Sequence of GDP-bound HRAS wild-type protein (P01112 whole entry): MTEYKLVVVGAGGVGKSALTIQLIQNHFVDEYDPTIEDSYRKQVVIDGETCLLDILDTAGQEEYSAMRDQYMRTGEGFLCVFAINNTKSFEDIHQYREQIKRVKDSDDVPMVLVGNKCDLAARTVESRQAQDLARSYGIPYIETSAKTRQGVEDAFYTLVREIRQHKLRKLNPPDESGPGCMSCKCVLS

## CCC[C@H]1C(=O)N[C@@H]([C@@H](C)CC)C(=O)N(C)CC(=O)N(C)[C@H]2C/C=C\CCN(C2=O)[C@@H](Cc2ccc(C)cc2)C(=O)N(C)CC(=O)N[C@@H](CCc2cc(Cl)c3sccc3c2)C(=O)N2C[C@H](OCC)C[C@H]2C(=O)NC2(CC(C)(C)C2)C(=O)N(C)[C@@H](C2CCCC2)C(=O)N(C)[C@H](C(=O)N(C)C)CC(=O)N1C [PP2947]
[1]; class symbols
  NRAS/KRAS (ratio of KD value with respect to GDP-bound NRAS wild-type protein to KD value with respect to KRAS): B (a compound having 3 or more and less than 10 is denoted as B)
[2]; class symbols
  HRAS/KRAS (ratio of KD value with respect to GDP-bound HRAS wild-type protein to KD value with respect to KRAS): B (a compound having 3 or more and less than 10 is denoted as B)

## CCOC[C@H]1C(=O)N[C@@H]([C@@H](C)CC)C(=O)N2CCC[C@H]2C(=O)N(C)[C@H]2C/C=C\CCN(C2=O)[C@@H](CC2CCCCC2)C(=O)N(C)CC(=O)N[C@@H](CCc2ccc(C(F)(F)F)c(OC)c2)C(=O)N2C[C@@H](C)C[C@H]2C(=O)N(C)C2(CCC2)C(=O)N(C)[C@@H](C2CCCC2)C(=O)N(C)[C@H](C(=O)N(C)C)CC(=O)N1C [PP2375]
[1]; [3]
  NRAS/KRAS (ratio of KD value with respect to NRAS to KD value with respect to KRAS): A (a compound having 10 or more and less than 20 is denoted as A)
[2]; [4]
  HRAS/KRAS (ratio of KD value with respect to HRAS to KD value with respect to KRAS): B (a compound having 3 or more and less than 10 is denoted as B)

## CCOC[C@H]1C(=O)N[C@@H]([C@@H](C)CC)C(=O)N(C)CC(=O)N(C)[C@H]2C/C=C\CCN(C2=O)[C@@H](Cc2ccc(C)cc2)C(=O)N(C)CC(=O)N[C@@H](CCc2ccc(C(F)(F)F)c(OC)c2)C(=O)N2C[C@H](C)C[C@H]2C(=O)NC2(CC(C)(C)C2)C(=O)N(C)[C@@H](C2CCCC2)C(=O)N(C)[C@H](C(=O)N(C)C)CC(=O)N1C [PP2393]
[1]; [3]
  NRAS/KRAS (ratio of KD value with respect to NRAS to KD value with respect to KRAS): A (a compound having 10 or more and less than 20 is denoted as A)
[2]; [4]
  HRAS/KRAS (ratio of KD value with respect to HRAS to KD value with respect to KRAS): A (a compound having 10 or more and less than 20 is denoted as A)

## CCCOC[C@H]1C(=O)N[C@@H]([C@@H](C)CC)C(=O)N(C2CC2)CC(=O)N(C)[C@H]2C/C=C\CCN(C2=O)[C@@H](Cc2ccc(C)cc2)C(=O)N(C)CC(=O)N[C@@H](CCc2ccc(C(F)(F)F)c(OC)c2)C(=O)N2C[C@H](OCC)C[C@H]2C(=O)N(C)C2(CCC2)C(=O)N(C)[C@@H](C2CCCC2)C(=O)N(C)[C@H](C(=O)N(C)C)CC(=O)N1C [PP2330]
[1]; [3]
  NRAS/KRAS (ratio of KD value with respect to NRAS to KD value with respect to KRAS): A (a compound having 10 or more and less than 20 is denoted as A)
[2]; [4]
  HRAS/KRAS (ratio of KD value with respect to HRAS to KD value with respect to KRAS): A (a compound having 10 or more and less than 20 is denoted as A)

## CC[C@H](C)[C@@H]1NC(=O)[C@H](CC(C)C)N(C)C(=O)C[C@@H](C(=O)N2CCOCC2)N(C)C(=O)[C@H](CC(F)(F)F)N(C)C(=O)C2(CCCC2)NC(=O)[C@@H]2CCCN2C(=O)[C@H](CCc2cc(F)c(C(F)(F)F)c(F)c2)NC(=O)CN(C)C(=O)[C@H](Cc2ccc(C(F)(F)F)cc2)N2CCCCC[C@@H](C2=O)N(C)C(=O)CN(C)C1=O [PP0506]
[1]; SPR
  NRAS/KRAS (ratio of KD value with respect to GDP-bound NRAS wild-type protein to KD value with respect to KRAS): B (a compound having 3 or more and less than 10 is denoted as B)
[2]; SPR
  HRAS/KRAS (ratio of KD value with respect to GDP-bound HRAS wild-type protein to KD value with respect to KRAS): B (a compound having 3 or more and less than 10 is denoted as B)

## CCCN(C)C(=O)[C@@H]1CC(=O)N(C)[C@@H](COC)C(=O)N[C@@H]([C@@H](C)CC)C(=O)N(C)CC(=O)N(C)[C@H]2C/C=C\CCN(C2=O)[C@@H](Cc2ccc(C(F)(F)F)cc2)C(=O)N(C)CC(=O)N[C@@H](CCc2cc(F)c(C(F)(F)F)c(F)c2)C(=O)N2C[C@H](F)C[C@H]2C(=O)NC2(CC(C)(C)C2)C(=O)N(C)[C@@H](C2CCCC2)C(=O)N1C [PP1696]
[1]; KD ratio, GDP-bound NRAS wild-type vs GDP-bound KRAS wild-type, SPR
  NRAS/KRAS (ratio of KD value for NRAS to KD value for KRAS): AA (a compound having 20 or more is denoted as AA)
[2]; KD ratio, GDP-bound HRAS wild-type vs GDP-bound KRAS wild-type, SPR
  HRAS/KRAS (ratio of KD value for HRAS to KD value for KRAS): A (a compound having 10 or more and less than 20 is denoted as A)

## CCO[C@@H]1C[C@H]2C(=O)NC3(CC(C)(C)C3)C(=O)N(C)[C@@H](C3CCCC3)C(=O)N(C)[C@H](C(=O)N3CCOCC3)CC(=O)N(C)[C@@H](CC(C)C)C(=O)N[C@@H]([C@@H](C)CC)C(=O)N(C)CC(=O)N(C)[C@H]3CCCCCN(C3=O)[C@@H](Cc3ccc(C(F)(F)F)cc3)C(=O)N(C)CC(=O)N[C@@H](CCc3cc(F)c(C(F)(F)F)c(F)c3)C(=O)N2C1 [PP0726]
[1]; SPR
  NRAS/KRAS (ratio of KD value with respect to GDP-bound NRAS wild-type protein to KD value with respect to KRAS): B (a compound having 3 or more and less than 10 is denoted as B)
[2]; SPR
  HRAS/KRAS (ratio of KD value with respect to GDP-bound HRAS wild-type protein to KD value with respect to KRAS): B (a compound having 3 or more and less than 10 is denoted as B)
